Data reported in patent US8263598B2, “Substituted sulfonamide compounds” (Gruenenthal GmbH, priority 2008, dated 2012).

Columns and labels:
[1] = target: T1, B1R receptor of rats (rB1R) (Rattus norvegicus, UniProt P97583); assay: FLIPR Ca2+ assay on rat bradykinin 1 receptor (CHO K1 rB1R cells); assay type: cell-based; conditions: test substance 10 μM; CHO K1 cells with B1R gene of rats; agonist Des-Arg9-bradykinin 100 nM; compared to maximum achievable inhibition
T1 construct: host or cells: CHO K1 cells
T1 sequence (P97583 1-337): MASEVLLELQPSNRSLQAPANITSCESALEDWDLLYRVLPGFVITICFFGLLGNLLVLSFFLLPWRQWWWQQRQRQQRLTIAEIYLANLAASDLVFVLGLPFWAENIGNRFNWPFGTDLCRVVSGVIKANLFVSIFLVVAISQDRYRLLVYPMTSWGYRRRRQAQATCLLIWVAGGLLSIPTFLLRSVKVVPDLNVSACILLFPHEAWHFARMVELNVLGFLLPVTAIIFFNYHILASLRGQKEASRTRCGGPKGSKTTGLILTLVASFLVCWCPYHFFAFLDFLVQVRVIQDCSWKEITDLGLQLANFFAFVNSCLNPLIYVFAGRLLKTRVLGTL
Procedure: (§1) The agonistic or antagonistic action of compounds can be quantified on the bradykinin 1 receptor (B1R) of humans and rats with ectopically expressing cell lines (CHO K1 cells) and with the aid of a Ca^2+-sensitive dye (Fluo-4) in the fluorescent imaging plate reader (FLIPR). The figure in percent activation refers to the Ca^2+ signal after addition of Lys-Des-Arg^9-bradykinin (0.5 nM) and Des-Arg^9-bradykinin (100 nM). Antagonists result in a suppression of the Ca^2+ inflow after the addition of the agonist. Percent inhibition values are given in comparison to the maximum achievable inhibition.
(§2) The agonistic or antagonistic action of substances can be determined on the bradykinin 1 receptor (B1R) of humans and rats by means of the following assay.
(§3) According to this assay the Ca^2+ inflow through the channel is quantified by means of a Ca^2+-sensitive dye (Fluo-4 type, Molecular Probes Europe BV, Leiden, Netherlands), in a Fluorescent Imaging Plate Reader (FLIPR, Molecular Devices, Sunnyvale, USA). Method:
(§4) Chinese hamster ovary cells (CHO K1 cells) are used, which are stably transfected with the human B1R gene (hB1R cells, Euroscreen s.a., Gosselies, Belgium), or with the B1R gene of rats (rB1R cells, Axxam, Milan, Italy). For functional investigations these cells are plated out on black 96-well plates with a clear floor (BD Biosciences, Heidelberg, Germany) in a density of 20,000/25,000 cells/well. The cells are incubated overnight with 10 vol. % FBS (foetal bovine serum, Gibco Invitrogen GmbH, Karlsruhe, Germany) at 37° C. and 5% CO2 in a culture medium (hB1R cells: Nutrient Mixture Ham's F12, Gibco Invitrogen GmbH, Karlsruhe, Germany; rB1R cells: D-MEM/F12, Gibco Invitrogen GmbH, Karlsruhe, Germany). The following day the cells are charged for 60 minutes at 37° C. with 2.13 μM Fluo-4 (Molecular Probes Europe BV, Leiden, Netherlands) in HBSS buffer (Hank's buffered saline solution, Gibco Invitrogen GmbH, Karlsruhe, Germany) together with […] (Sigma-Aldrich, Taufkirchen, Germany) and 10 mM HEPES (Sigma-Aldrich, Taufkirchen, Germany).
(§5) The plates are then washed twice with HBSS buffer and HBSS buffer is added which additionally contains 0.1% BSA (bovine serum albumin; Sigma-Aldrich, Taufkirchen, Germany), 5.6 mM glucose and 0.05% gelatin (Merck KGaA, Darmstadt, Germany). After further incubation for 20 minutes at room temperature the plates are used for the Ca^2+ measurement in the FLIPR. The Ca^2+-dependent fluorescence is measured both before and after the addition of substances (λex=488 nm, λem=540 nm). The quantification is carried out by measuring the highest fluorescence intensity (FC, fluorescence counts) over time.
(§6) The FLIPR protocol consists of two substance additions. First of all test substances (10 μM) are pipetted onto the cells and the Ca^2+ inflow is compared with the control (hB1R: Lys-Des-Arg9-bradykinin 0.5 nM; rB1R: Des-Arg9-bradykinin 100 nM). This gives the result in percent activation referred to the Ca^2+ signal after addition of Lys-Des-Arg9-bradykinin (0.5 nM), bzw. Des-Arg9-bradykinin (100 nM). After 10 minutes' incubation 0.5 nM Lys-Des-Arg9-bradykinin (hB1R) and 100 nM Des-Arg^9-bradykinin (rB1R) are applied and the inflow of Ca^2+ is likewise determined. Antagonists lead to a suppression of the Ca^2+ inflow. The percent inhibition compared to the maximum achievable inhibition is calculated. The compounds show a good activity on both human and rat receptors.
(§7) The agonistic and antagonistic action of the compounds according to the invention on the bradykinin 1 receptor (B1R) of humans and rats were determined as described above. Antagonists lead to a suppression of the Ca^2+ inflow. The % inhibition compared to the maximum achievable inhibition was calculated.

[2] = target: T2, human B1R receptor (hB1R) (Homo sapiens, UniProt P46663); assay: FLIPR Ca2+ assay on human bradykinin 1 receptor (CHO K1 hB1R cells); assay type: cell-based; conditions: test substance 10 μM; CHO K1 cells with human B1R gene; agonist Lys-Des-Arg9-bradykinin 0.5 nM; compared to maximum achievable inhibition
T2 construct: host or cells: CHO K1 cells
T2 sequence (P46663 1-353): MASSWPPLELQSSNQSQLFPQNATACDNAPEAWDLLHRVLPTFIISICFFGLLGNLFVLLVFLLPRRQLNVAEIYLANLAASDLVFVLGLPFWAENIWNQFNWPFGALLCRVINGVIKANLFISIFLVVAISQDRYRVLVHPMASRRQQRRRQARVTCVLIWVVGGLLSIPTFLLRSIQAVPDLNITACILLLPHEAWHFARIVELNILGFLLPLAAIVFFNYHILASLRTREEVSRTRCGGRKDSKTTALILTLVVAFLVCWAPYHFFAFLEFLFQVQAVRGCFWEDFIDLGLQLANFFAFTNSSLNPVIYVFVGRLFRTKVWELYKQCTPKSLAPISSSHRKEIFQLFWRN
Procedure: as §1, §2, §3, §4, §5, §6, §7

inhibition at 10 µM [1] | inhibition at 10 µM [2] | Structure (SMILES)
93% | 103% | CCC1c2ccc(CN(C)C)n2CCN1C(=O)COCCN(C)S(=O)(=O)c1cc(C)c(OC)c(C)c1C (stereo not drawn) [Example 113, N-(2-(2-(6-((dimethylamino)methyl)-1-ethyl-3,4-dihydropyrrolo[1,2-a]pyrazin-2(1H)-yl)-2-oxoethoxy)ethyl)-4-methoxy-N,2,3,5-tetramethylbenzenesulfonamide]
97% | 101% | COc1cccc(C2c3cccn3CCN2C(=O)COCCN(C)S(=O)(=O)c2c(C)cc(C)cc2C)c1 (stereo not drawn) [Example 76, N-(2-(2-(1-(3-methoxyphenyl)-3,4-dihydropyrrolo[1,2-a]pyrazin-2(1H)-yl)-2-oxoethoxy)ethyl)-N,2,4,6-tetramethylbenzenesulfonamide]
81% | 37% | COc1c(C)cc(S(=O)(=O)N(C)CCOCC(=O)N2CCn3cccc3C2C)c(C)c1C (stereo not drawn) [Example 28, 4-methoxy-N,2,3,5-tetramethyl-N-(2-(2-(1-methyl-3,4-dihydropyrrolo[1,2-a]pyrazin-2(1H)-yl)-2-oxoethoxy)ethyl)benzenesulfonamide]
101% | 101% | COc1cc(C)c(S(=O)(=O)N(CCOCC(=O)N2CCn3c(CN(C)C)ccc3C2Cc2ccccc2)CC(C)C)c(C)c1C (stereo not drawn) [Example 95, N-(2-(2-(1-benzyl-6-((dimethylamino)methyl)-3,4-dihydropyrrolo[1,2-a]pyrazin-2(1H)-yl)-2-oxoethoxy)ethyl)-N-isobutyl-4-methoxy-2,3,6-trimethylbenzene-sulfonamide]
99% | 95% | COc1cc(C)c(S(=O)(=O)N(C)CCOCC(=O)N2CCn3cccc3C2c2cccc(F)c2)c(C)c1 (stereo not drawn) [Example 59, N-(2-(2-(1-(3-fluorophenyl)-3,4-dihydropyrrolo[1,2-a]pyrazin-2(1H)-yl)-2-oxoethoxy)ethyl)-4-methoxy-N,2,6-trimethylbenzenesulfonamide]
94% | 100% | COc1cc(C)c(S(=O)(=O)N(C)CCOCC(=O)N2CCn3c(Cc4cccnc4)ccc3C2)c(C)c1 [Example 174, 4-Methoxy-N,2,6-trimethyl-N-(2-(2-oxo-2-(6-(pyridin-3-ylmethyl)-3,4-dihydropyrrolo[1,2-a]pyrazin-2(1H)-yl)ethoxy)ethyl)benzenesulfonamide]
67% | 95% | COc1ccc(C2c3cccn3CCN2C(=O)COCCN(C)S(=O)(=O)c2cc(C)c(OC)c(C)c2C)cc1 (stereo not drawn) [Example 31, 4-methoxy-N-(2-(2-(1-(4-methoxyphenyl)-3,4-dihydropyrrolo[1,2-a]pyrazin-2(1H)-yl)-2-oxoethoxy)ethyl)-N,2,3,5-tetramethylbenzenesulfonamide]
97% | 100% | COc1cc(C)c(S(=O)(=O)N(C)CCOCC(=O)N2CCn3c(CCc4ccncc4)ccc3C2)c(C)c1 [Example 172, 4-Methoxy-N,2,6-trimethyl-N-(2-(2-oxo-2-(6-(2-(pyridin-4-yl)ethyl)-3,4-dihydropyrrolo[1,2-a]pyrazin-2(1H)-yl)ethoxy)ethyl)benzenesulfonamide]
79% | 96% | COc1c(C)cc(S(=O)(=O)N(C)CCOCC(=O)N2CCn3cccc3C2c2cccnc2)c(C)c1C (stereo not drawn) [Example 29, 4-methoxy-N,2,3,5-tetramethyl-N-(2-(2-oxo-2-(1-(pyridin-3-yl)-3,4-dihydropyrrolo[1,2-a]pyrazin-2(1H)-yl)ethoxy)ethyl)benzenesulfonamide]
99% | 102% | Cc1cc(C)c(S(=O)(=O)N(C)CCOCC(=O)N2CCn3cccc3C2c2cccc(F)c2)c(C)c1 (stereo not drawn) [Example 73, N-(2-(2-(1-(3-fluorophenyl)-3,4-dihydropyrrolo[1,2-a]pyrazin-2(1H)-yl)-2-oxoethoxy)ethyl)-N,2,4,6-tetramethylbenzenesulfonamide]
103% | 104% | CCC1c2ccc(CN(C)C)n2CCN1C(=O)COCCN(C)S(=O)(=O)c1c(C)cc(C)cc1C (stereo not drawn) [Example 145, N-(2-(2-(6-((dimethylamino)methyl)-1-ethyl-3,4-dihydropyrrolo[1,2-a]pyrazin-2(1H)-yl)-2-oxoethoxy)ethyl)-N,2,4,6-tetramethylbenzenesulfonamide]
101% | 101% | COc1cc(C)c(S(=O)(=O)N(C)CCOCC(=O)N2CCn3c(CN4CCCC4)ccc3C2c2ccccc2)c(C)c1 (stereo not drawn) [Example 15, 4-methoxy-N,2,6-trimethyl-N-(2-(2-oxo-2-(1-phenyl-6-(pyrrolidin-1-ylmethyl)-3,4-dihydropyrrolo[1,2-a]pyrazin-2(1H)-yl)ethoxy)ethyl)benzenesulfonamide]
98% | 100% | COc1cc(C)c(S(=O)(=O)N(C)CCOCC(=O)N2CCn3cccc3C2CCc2ccccc2)c(C)c1C (stereo not drawn) [Example 148, 4-methoxy-N,2,3,6-tetramethyl-N-(2-(2-oxo-2-(1-phenethyl-3,4-dihydropyrrolo[1,2-a]pyrazin-2(1H)-yl)ethoxy)ethyl)benzenesulfonamide]
97% | 99% | O=C(C[C@@H](NS(=O)(=O)c1ccc2ccccc2c1)c1ccccc1)N1CCn2c(nc(CN3CCCCC3)c2Cl)C1 [Example 5, (R)-N-(3-(3-chloro-2-(piperidin-1-ylmethyl)-5,6-dihydroimidazo[1,2-a]pyrazin-7(8H)-yl)-3-oxo-1-phenylpropyl)naphthalene-2-sulfonamide]
102% | – | O=C(C[C@@H](NS(=O)(=O)c1ccc2ccccc2c1)c1ccccc1)N1CCn2c(CN3CCCCC3)nnc2C1 [Example 164, (R)-N-(3-oxo-1-phenyl-3-(3-(piperidin-1-ylmethyl)-5,6-dihydro-[1,2,4]triazolo[4,3-a]pyrazin-7(8H)-yl)propyl)naphthalene-2-sulfonamide]
103% | – | COc1cc(C)c(S(=O)(=O)N(C)CCOCC(=O)N2CCn3c(CN4CCCCC4)nnc3C2)c(C)c1 [Example 163, 4-Methoxy-N,2,6-trimethyl-N-(2-(2-oxo-2-(3-(piperidin-1-ylmethyl)-5,6-dihydro-[1,2,4]triazolo[4,3-a]pyrazin-7(8H)-yl)ethoxy)ethyl)benzenesulfonamide]
